This is an account of results in PubChem BioAssay (NCI).

Experiment in all cases: DTP human tumour cell line panel, 48 h
Test [1] relates to A549 NSCLC.
In test [2] the test system is SK-MEL-5 melanoma.
The test system of test [3] is UACC-62 melanoma.
The subject of test [4] is OVCAR-4 ovarian.
Test [5] has as its system A498 renal.
The subject of test [6] is PC-3 prostate.
For test [7], the system named is ACHN renal.
Test [8] has as its system CAKI-1 renal.
The test system of test [9] is NCI/ADR-RES ovarian.

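1) Cells in 96-well plates. 2) Compound, 48 h, 5 concentrations. 3) Linear interpolation between surrounding doses. 4) Unreached endpoint = highest concentration. GI50 marks 50% less growth. TGI is the concentration that stops growth completely.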 Where only a bound is given, the exact number is not on record here.

Turning to `CC(C)CCC[C@@H](C)[C@H]1CCC2C3=CCC4C(=O)C=CC(=O)C4C3CC[C@@]21C` (some centres not stated), the GI50 was 83.6 nM in test [1]; 419 nM in test [2]; 542 nM in test [3]; 159 nM in test [4]; 301 nM in test [5]; 101 nM in test [6]. Further, the TGI in [2] is 2.66 µM; in [3] it was more than 100 µM; in test [4], 0.498 µM; in [5] it was 1.14 µM.
Turning to `COc1cc(-c2nc3nc(N4CCN(C)CC4)ccc3[nH]2)c(OC)c2[nH]c(COC(C)=O)nc12`, the TGI in test [1] was more than 100 µM; in [2], 35.6 µM; in test [3], more than 100 µM; in [7] it was more than 100 µM; in [8] it was more than 100 µM; in [4], more than 100 µM. Besides, the TGI in test [5] and in [9] was more than 100 µM in each case.
Consider `O=C(O)/C=C/C(=O)O`, for which the TGI in [1], in test [2], in [7], in test [8], in test [4] and in test [6] was more than 100 µM in each case. Further, the TGI in test [9] was more than 100 µM.
As for `CC(=N\N=C\c1ccccn1)/C(C)=N/N=C(C)/C(C)=N/N=C(C)/C(C)=N/N=C/c1ccccn1`, the TGI in test [1], in test [2], in test [7], in [8], in [4] and in test [5] was more than 100 µM throughout. The TGI in [6] and in [9] was more than 100 µM each time.
As to `CN1CC2CC(C1)c1cccc(=O)n1C2` (configuration not stated), the TGI in test [1], in [2], in test [3], in test [7], in test [8] and in test [4] was more than 100 µM in each case. Moreover, the TGI in test [6] and in test [9] was more than 100 µM each time.
Turning to `O=C(NN1C(=O)C=CC1=O)c1ccccc1Nc1ccccc1C(=O)NN1C(=O)C=CC1=O`, the concentration for total growth inhibition (TGI) in test [2], in test [3], in test [7], in [8], in [4] and in [6] was more than 100 µM each time. The molecule also returned a TGI in [9] of more than 100 µM.
For `N#Cc1nc(/C=C/c2ccccc2)oc1N`, the TGI in [1], in test [2], in test [7], in test [8], in [4] and in test [5] was more than 100 µM throughout. Moreover, the total growth inhibition concentration (TGI) in test [6] and in test [9] was more than 100 µM each time.
As to `C#CCOC(=O)C(N)CCCN=C(N)N` (configuration not stated), the TGI in test [1], in [2], in test [7], in [8], in test [4] and in test [5] was more than 100 µM each time. Moreover, the concentration for total growth inhibition (TGI) in [6] and in test [9] was more than 100 µM in each case.
For `c1ccc(C2=C(c3ccccc3)P(c3ccccc3)C2)cc1` (configuration not stated), the TGI in test [1], in test [7], in test [8], in test [4], in test [5] and in test [6] was more than 100 µM each time. Moreover, in test [9], the total growth inhibition concentration (TGI) is more than 100 µM.
For `COc1ccc(/C=C2\CN(C)Cc3c2[nH]c(=O)c(C#N)c3-c2ccc(OC)cc2)cc1`, the TGI in [1], in test [2], in test [3], in test [7], in test [8] and in test [4] was more than 100 µM in each case. In addition, the TGI in test [6] and in [9] was more than 100 µM in each case.
As to `CC(C)CCC/C(CBr)=C(\Cl)CCl`, the concentration for total growth inhibition (TGI) was 31 µM in [1]; 6 µM in test [2]; 23.3 µM in [7]; 9.35 µM in test [8]; 2.93 µM in test [4]; 35.2 µM in test [5]. Also, the TGI in test [6] amounted to 13.2 µM; in [9], 10.7 µM.
On to `COc1ccc2c(c1)-c1oc3ccccc3c(=O)c1CO2`, for which the concentration for total growth inhibition (TGI) in test [1] is more than 100 µM; in test [2], 36.2 µM; in test [3] it was more than 100 µM; in test [7] it was more than 100 µM; in test [8], 50.6 µM; in test [6], more than 100 µM. In test [9], this molecule returned a concentration for total growth inhibition (TGI) of more than 100 µM.
Regarding `COc1cc2c(cc1Cl)n([O-])c(C#N)c(N1CCN(c3ccc([N+](=O)[O-])cc3)CC1)[n+]2=O`, the TGI in [1] was more than 100 µM; in [2], more than 59.6 µM; in test [3], more than 72.9 µM; in [7] it was more than 77.2 µM; in test [8], more than 100 µM; in test [4], more than 100 µM. The TGI in test [6] and in test [9] was more than 100 µM each time.
As to `N#Cc1c(N2CCN(c3ccc([N+](=O)[O-])cc3)CC2)[n+](=O)c2ccc(Cl)cc2n1[O-]`, the TGI in [1] was more than 24.4 µM; in test [7], 2.24 µM; in test [8] it was 2.7 µM; in test [4] it was 9.52 µM; in test [5], 2.44 µM; in test [6], more than 36.2 µM. This molecule showed a TGI in test [9] of 7.85 µM.
As to `COC(=O)c1ccccc1CC(Cc1ccccc1)C(=O)OC` (configuration not stated), the TGI in test [1] is more than 100 µM; in [2] it was 54.8 µM; in test [7] it was more than 100 µM; in [8], more than 100 µM; in [4], more than 100 µM; in test [5], more than 100 µM. Besides, the TGI in [6] and in test [9] was more than 100 µM in each case.
`O=C(c1ccccc1)N1C(=S)N(c2ccc([N+](=O)[O-])cc2)C(=Nc2ccccc2)C1=Nc1ccccc1`: the TGI in test [1], in test [2], in test [3], in test [7], in test [8] and in test [6] was more than 100 µM in each case. For the same molecule, in [9], the TGI was more than 100 µM.
As for `O=C1/C(=C/c2ccco2)NC(=S)N1CN1CCOCC1`, the TGI in test [1], in test [2], in [3], in [7], in test [4] and in test [5] was more than 100 µM each time. The total growth inhibition concentration (TGI) in test [6] and in [9] was more than 100 µM in each case.
For the molecule `O=C(CCCn1ccnc1[N+](=O)[O-])NCCn1ccnc1[N+](=O)[O-]`, the TGI in [1], in test [2], in test [3], in [7], in test [8] and in test [4] was more than 100 µM in each case. The TGI in test [6] and in test [9] was more than 100 µM in each case.
As for `O=C(O)C1SCCS1`, the TGI in test [1], in test [2], in test [3], in test [7], in test [4] and in test [5] was more than 100 µM in each case. The TGI in [6] and in test [9] was more than 100 µM in each case.
As for `O=C1C[C@H](c2ccccc2)C2(C(=O)c3ccccc3C2=O)[C@H](c2ccccc2)C1`, the TGI in test [2], in [3], in [8], in [4], in test [5] and in test [6] was more than 100 µM each time. This molecule also returned a TGI in test [9] of more than 100 µM.
On to `COC(=O)CCN(CCC(=O)OC)C1CC1`, for which the TGI in test [1], in [2], in test [3], in [7], in test [4] and in test [5] was more than 100 µM in each case. For the same molecule, the TGI in test [9] was more than 100 µM.
For the molecule `NC(=O)NCCCC(NC(=O)OCCCCCn1ccc(=O)[nH]c1=O)C(=O)O` (configuration not stated), the TGI in test [1], in [3], in test [7], in test [8], in [4] and in test [6] was more than 100 µM each time. The molecule also displayed a concentration for total growth inhibition (TGI) in test [9] of more than 100 µM.
Regarding `CCOC(=O)C(NCc1cccc(C(F)(F)F)c1)(NC(=O)c1ccccc1)C(F)(F)F` (configuration not stated), the TGI in test [1] is more than 100 µM; in [2], more than 100 µM; in test [3], 30.9 µM; in test [7], 79.5 µM; in test [8], 41.2 µM; in test [4], more than 100 µM. The TGI is more than 100 µM in [6] and 84.5 µM in [9].
For the molecule `Cc1c(F)c(N)c2c(=O)cc(-c3ccc(NC(=O)C(N)CCCN=C(N)N)c(F)c3)oc2c1F` (configuration not stated), the TGI in test [1] was more than 100 µM; in [2], 76.8 µM; in [7], 48.5 µM; in test [8], 3.32 µM; in test [4], 40.7 µM; in test [5] it was 0.281 µM. In addition, the total growth inhibition concentration (TGI) in test [6] is more than 76.6 µM; in test [9], more than 100 µM.
In the case of `OCC(O)C(O)C(O)C(/C=N\Nc1ncnc2ccc(Br)cc12)=N/Nc1ncnc2ccc(Br)cc12` (configuration not stated), the TGI in [1] was more than 100 µM; in [2], 18 µM; in test [7], more than 100 µM; in test [8], more than 100 µM; in [4], more than 100 µM; in test [5], more than 100 µM. Moreover, in test [6], the TGI is more than 100 µM.
On to `CC[C@@H]1CC[C@@H]2[C@H](CC[C@]3(C)[C@@H](OS(=O)(=O)c4ccc(C)cc4)CC[C@@H]23)[C@H]1CO`, for which the total growth inhibition concentration (TGI) in test [1], in [2], in [7], in test [8], in [4] and in test [5] was more than 100 µM in each case. Also, the TGI in test [6] and in test [9] was more than 100 µM in each case.
For the molecule `COC1/C=C/C(C)C(C(C)C(OC)C(C)CCC(=O)C(C)C(C/C=C/N(C)C=O)OC)OC(=O)/C=C/C=C(\C)CC(OC)C(OC)C2=CC(=O)O[C@@H](C(C)C(OC)CC(OC)/C=C/C(C)C(O)C1)[C@H]2O` (some centres not stated), the concentration for total growth inhibition (TGI) in test [1] worked out at 0.781 µM; in test [2], 0.206 µM; in test [3], 0.314 µM; in [7] it was 0.594 µM; in test [4], 0.365 µM; in test [5] it was 0.233 µM. Besides, the TGI in [6] turned out to be 0.35 µM; in [9], 0.766 µM.
Consider `CN(c1ccccc1Cl)S(=O)(=O)c1ccccc1[N+](=O)[O-]`, for which the TGI in test [1] is more than 100 µM; in [2], 28.9 µM; in test [3], more than 100 µM; in test [8], more than 100 µM; in test [4], more than 100 µM; in test [6], more than 100 µM. Further, the total growth inhibition concentration (TGI) in [9] was determined as 95.9 µM.
On to `CCS(=O)(=O)c1c2cc(OC)ccc2nc2ccc(OC)cc12`, for which the TGI in [1], in [3], in test [7], in test [8], in test [4] and in test [5] was more than 100 µM throughout. The TGI in test [6] and in test [9] was more than 100 µM each time.
In the case of `COc1cc(C(SCc2ccccc2)SCc2ccccc2)ccc1O`, the TGI in test [2], in test [3], in test [7], in [8], in test [5] and in test [6] was more than 10 µM in each case. The same molecule returned a TGI in test [9] of more than 10 µM.
`COc1ccc(C2c3cc4c(cc3OC(N3CCCCC3)C2C)OCO4)cc1` (configuration not stated): the TGI is more than 100 µM in test [1]; more than 100 µM in test [2]; more than 100 µM in test [3]; more than 100 µM in [7]; 84.9 µM in test [8]; more than 100 µM in test [6]. The molecule also showed a TGI in test [9] of more than 100 µM.
Take `CC(=O)OCC1OC(c2nnc(C)o2)=CC(OC(C)=O)C1OC(C)=O` (configuration not stated): the TGI in test [1], in test [2], in [7], in [8], in test [4] and in test [5] was more than 100 µM throughout. In addition, the total growth inhibition concentration (TGI) in [6] and in [9] was more than 100 µM in each case.
With `O=C(O)c1ccc(Nc2nc3ccccc3nc2C(=O)O)cc1`, the total growth inhibition concentration (TGI) in test [1], in [2], in test [3], in test [7], in test [8] and in test [4] was more than 100 µM in each case. Besides, the TGI in [9] was more than 100 µM.
